Experimental data as given in paper PMC7408547, “Bivalent Inhibitor with Selectivity for Trimeric MMP-9 Amplifies Neutrophil Chemotaxis and Enables Functional Studies on MMP-9 Proteoforms” (Cells, 2020).
Several values for one entry are separate records, joined by “and”; a condition that tells them apart may be missing. Equal values may be shown once. Read-outs that look alike come from different tables or passages of the source.

Legend:
Format in all cases: biochemical
[1] = target: T1, human neutrophil-derived MMP-9 monomers (Homo sapiens, UniProt P14780); experiment: Gelatin degradation assay, neutrophil-derived MMP-9 monomers; settings: MMP-9 isolated from human neutrophils, mono
T1 construct: purchased Sigma-Aldrich 444,231; host or cells: human neutrophils (natural protein)
T1 sequence (P14780 107-707 limits assumed): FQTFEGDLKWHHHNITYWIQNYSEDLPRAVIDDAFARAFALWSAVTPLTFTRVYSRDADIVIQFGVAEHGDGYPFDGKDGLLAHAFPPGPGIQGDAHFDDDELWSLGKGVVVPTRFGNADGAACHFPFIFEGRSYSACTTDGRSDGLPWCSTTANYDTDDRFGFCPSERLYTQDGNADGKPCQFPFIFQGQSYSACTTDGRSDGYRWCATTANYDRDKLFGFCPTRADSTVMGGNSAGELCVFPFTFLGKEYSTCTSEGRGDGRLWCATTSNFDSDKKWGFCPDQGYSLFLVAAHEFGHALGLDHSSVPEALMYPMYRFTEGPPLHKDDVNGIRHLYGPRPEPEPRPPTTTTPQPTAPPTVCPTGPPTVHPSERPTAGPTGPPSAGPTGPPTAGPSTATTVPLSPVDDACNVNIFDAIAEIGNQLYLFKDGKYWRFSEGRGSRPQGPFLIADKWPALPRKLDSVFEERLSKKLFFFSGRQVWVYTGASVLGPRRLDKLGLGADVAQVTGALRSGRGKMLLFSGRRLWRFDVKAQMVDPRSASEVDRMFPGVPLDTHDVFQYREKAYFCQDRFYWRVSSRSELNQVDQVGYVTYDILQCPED
Method: (§1) Compounds 5 and 7 were synthesized as previously reported. Full-length human proMMP-9 was produced by recombinant expression in Sf9 insect cells and purified by gelatin-Sepharose chromatography as previously described. Stable full-length proMMP-9 monomers and trimers were separated by glycerol gradient ultracentrifugation as previously described. ProMMP-9 mixture and the separated monomers and trimers were activated by incubation with the catalytic domain of MMP-3 (cat. No. 444217, Merck Millipore, Darmstadt, Germany) as previously described. Activation of proMMP-9 was confirmed by a band shift of ±10 kDa, corresponding to the removal of the auto-inhibitory propeptide domain and by detection of gelatinolytic activity with a previously described gelatin degradation assay. MMP-9 monomers and trimers purified from human neutrophils were purchased (Cat. No. 444,231 and 444232, Sigma-Aldrich, St. Louis, MO, USA). Examples of sample purities and activations can be found in Supplementary Figure S1. Recombinant human proMMP-2 (CHO cell-derived), proMMP-3 (NS0 cell-derived), proMMP-7 (NS0 cell-derived) and proMMP-8 (NS0 cell-derived) were purchased from R & D systems (Minneapolis, MN, USA), dissolved in assay buffer (150 mM NaCl, 5 mM CaCl2, 0.01% Tween-20, 50 mM Tris, pH 7.4) to a concentration of 100 µg/mL and activated by incubation with 1 mM p-aminophenylmercuric acetate for, respectively, 1h, 6h, 2h and 1h. Activation of MMPs was confirmed by a band shift of approximately 10 kDa, corresponding to the removal of the propeptide domain. MMP-14/MT1-MMP (NS0 cell-derived) was also purchased from R & D systems (Minneapolis, MN, USA) and activated by incubation with recombinant human furin (cat. No. 1503-SE-010, R & D systems, Minneapolis, MO, USA) in activation buffer (50 mM Tris, 1 mM CaCl2, 0.5% Brij-35, pH 9) for 1.5 h and activity was tested in assay buffer (50 mM Tris, 3 mM CaCl2, 1 µM ZnCl2, pH 8.5). Active human neutrophil elastase (NE) was purchased from Abcam (Cambridge, UK) and for activity assays of NE the assay buffer was replaced by 200 mM Tris, pH 8.8. ADAM17/TACE (Sf 21 (baculovirus)-derived, R & D systems, Minneapolis, MO, USA) was diluted and evaluated in 25 mM Tris, 2.5 μM ZnCl2, 0.005% Brij-35, pH 9.0. All stocks of the compounds were evaluated for the presence of endotoxin using the EndoZyme II assay (Hyglos bioMérieux, Bernried am Starnberger See, Germany). Endotoxin levels in all concentrated stocks (2.5 mg/mL) were below the accepted limit of 0.5 EU/mL.
(§2) To determine the inhibition of gelatinolytic activity, we used a previously optimized gelatin degradation assay. Activated MMP-9, activated MMP-2, neutrophil elastase or supernatants of stimulated neutrophils, were incubated with different concentrations of inhibitors and incubated for 30 min at 37 °C. Next, dye-quenched gelatin (DQ™-gelatin, Invitrogen, Carlsbad, CA, USA) was added at a final concentration of 2.5 µg/mL and the increase in fluorescence over time was measured with the CLARIOstar microplate reader (BMG Labtech, Ortenberg, Germany). For other MMPs, the OmniMMP substrate peptide (Mca-PLGL-Dpa-AR-NH2, cat. no. BML-P126-0001, Enzo Life Sciences, Farmingdale, NY, USA) was used at a final concentration of 2.5 µg/mL. For ADAM17 the fluorogenic peptide Mca-PLAQAV-Dpa-RSSSR-NH2 (ES003, R & D systems, Minneapolis, MO, USA) and for neutrophil elastase the fluorogenic substrate MeOSuc-AAPV-AMC (cat. no. 324740, Merck Millipore, Darmstadt, Germany) were used. Proteolytic activity was determined by linear regression of the fluorescence curve and the percentage inhibition was calculated through comparison with the positive control (no inhibitors). When testing supernatants from human neutrophils, the assay was performed in the presence of 20 µM neutrophil elastase inhibitor (Elastase Inhibitor IV, Calbiochem, Darmstadt, Germany).

neutrophil elastase = target: T2, neutrophil elastase (Homo sapiens, UniProt P08246); experiment: Neutrophil elastase activity assay (fluorogenic elastase peptide and gelatin); settings: fluorogenic elastase substrate and gelatin; tested up to an inhibitor concentration of 50 µM
T2 construct: Active human neutrophil elastase (NE) was purchased from Abcam; purchased Abcam
T2 sequence (P08246 30-267): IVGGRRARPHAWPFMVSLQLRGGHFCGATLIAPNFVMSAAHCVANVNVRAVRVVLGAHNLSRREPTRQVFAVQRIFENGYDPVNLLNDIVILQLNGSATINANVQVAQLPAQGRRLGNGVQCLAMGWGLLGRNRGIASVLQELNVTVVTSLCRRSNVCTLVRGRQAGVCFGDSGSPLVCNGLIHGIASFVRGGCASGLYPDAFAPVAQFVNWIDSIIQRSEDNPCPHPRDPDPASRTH
Method: Compounds 5 and 7 were synthesized as previously reported. Full-length human proMMP-9 was produced by recombinant expression in Sf9 insect cells and purified by gelatin-Sepharose chromatography as previously described. Stable full-length proMMP-9 monomers and trimers were separated by glycerol gradient ultracentrifugation as previously described. ProMMP-9 mixture and the separated monomers and trimers were activated by incubation with the catalytic domain of MMP-3 (cat. No. 444217, Merck Millipore, Darmstadt, Germany) as previously described. […] ADAM17/TACE (Sf 21 (baculovirus)-derived, R & D systems, Minneapolis, MO, USA) was diluted and evaluated in 25 mM Tris, 2.5 μM ZnCl2, 0.005% Brij-35, pH 9.0. All stocks of the compounds were evaluated for the presence of endotoxin using the EndoZyme II assay (Hyglos bioMérieux, Bernried am Starnberger See, Germany). […]
To determine the inhibition of gelatinolytic activity, we used a previously optimized gelatin degradation assay. […] Next, dye-quenched gelatin (DQ™-gelatin, Invitrogen, Carlsbad, CA, USA) was added at a final concentration of 2.5 µg/mL and the increase in fluorescence over time was measured with the CLARIOstar microplate reader (BMG Labtech, Ortenberg, Germany). […]

[2] = target: T3, human neutrophil-derived MMP-9 trimers (Homo sapiens, UniProt P14780); experiment: Gelatin degradation assay, neutrophil-derived MMP-9 trimers; settings: for IC25 / IC50 / IC75: MMP-9 isolated from human neutrophils, tri, gelatin degradation
T3 construct: purchased Sigma-Aldrich 444232; host or cells: human neutrophils (natural protein)
T3 sequence (P14780 107-707 limits assumed): as the sequence (P14780 107-707 limits assumed) above
Method: as §1, §2

TACE/ADAM17 = target: T4, TACE/ADAM17 (Homo sapiens, UniProt P78536); experiment: TACE/ADAM17 fluorogenic peptide assay; settings: Mca-PLAQAV-Dpa-RSSSR-NH2 fluorogenic peptide, tested up to an inhibitor concentration of 50 µM
T4 construct: purchased R & D systems; host or cells: Sf 21 (baculovirus)
T4 sequence (P78536 215-824): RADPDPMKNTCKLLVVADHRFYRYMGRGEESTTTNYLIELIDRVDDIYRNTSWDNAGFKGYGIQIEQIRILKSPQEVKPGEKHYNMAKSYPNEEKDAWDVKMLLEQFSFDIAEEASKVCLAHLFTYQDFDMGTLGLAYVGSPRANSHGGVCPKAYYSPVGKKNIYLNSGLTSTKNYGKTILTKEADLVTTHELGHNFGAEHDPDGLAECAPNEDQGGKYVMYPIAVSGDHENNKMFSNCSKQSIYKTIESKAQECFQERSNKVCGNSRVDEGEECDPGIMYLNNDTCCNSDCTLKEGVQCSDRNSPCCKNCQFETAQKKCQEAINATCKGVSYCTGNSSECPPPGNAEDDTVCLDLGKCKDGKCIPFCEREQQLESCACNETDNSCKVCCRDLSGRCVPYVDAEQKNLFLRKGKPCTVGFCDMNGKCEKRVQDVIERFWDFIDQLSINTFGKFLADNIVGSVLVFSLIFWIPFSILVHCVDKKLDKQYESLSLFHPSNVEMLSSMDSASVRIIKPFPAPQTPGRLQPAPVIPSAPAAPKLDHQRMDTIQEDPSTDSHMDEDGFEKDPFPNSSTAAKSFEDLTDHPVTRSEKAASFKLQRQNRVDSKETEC
Method: as §1, with “Active human neutrophil elastase (NE) was purchased from Abcam (Cambridge, UK) and for activity assays of NE the assay buffer was replaced by 200 mM Tris, pH 8.8.” left out, “Endotoxin levels in all concentrated stocks (2.5 mg/mL) were below the accepted limit of 0.5 EU/mL.” left out
(§3) To determine the inhibition of gelatinolytic activity, we used a previously optimized gelatin degradation assay. […] Next, dye-quenched gelatin (DQ™-gelatin, Invitrogen, Carlsbad, CA, USA) was added at a final concentration of 2.5 µg/mL and the increase in fluorescence over time was measured with the CLARIOstar microplate reader (BMG Labtech, Ortenberg, Germany). […] Proteolytic activity was determined by linear regression of the fluorescence curve and the percentage inhibition was calculated through comparison with the positive control (no inhibitors). […]

[3] = target: T5, recombinant human MMP-9 trimers (Homo sapiens, UniProt P14780); experiment: Fluorogenic peptide (OmniMMP) degradation assay, recombinant MMP-9 trimers; settings: recombinant human MMP-9 (Sf9) tri
T5 construct: made in house; host or cells: Sf9 insect cells
T5 sequence (P14780 107-707 limits assumed): as the sequence (P14780 107-707 limits assumed) above
Method: as §1, §2

MMP-14/MT1-MMP = target: T6, MMP-14/MT1-MMP (Homo sapiens, UniProt P50281); experiment: MMP-14 OmniMMP peptide assay
T6 construct: purchased R & D systems; host or cells: NS0 cells
Method: as §1, with “Active human neutrophil elastase (NE) was purchased from Abcam (Cambridge, UK) and for activity assays of NE the assay buffer was replaced by 200 mM Tris, pH 8.8.” left out, “Endotoxin levels in all concentrated stocks (2.5 mg/mL) were below the accepted limit of 0.5 EU/mL.” left out
as §3

CC(C)[C@H](C(=O)O)N(CCNC(=O)c1ccccc1)S(=O)(=O)c1ccc(-c2ccccc2)cc1 [Compound 5]
IC25 [1]: 300 nM
IC50 [1]: 1150 nM
IC75 [1]: 4431 nM
IC50 (neutrophil elastase): no inhibition ^†
IC25 [2]: 479 nM
IC50 [2]: 4220 nM
IC75 [2]: 17212 nM
IC50 (TACE/ADAM17): no inhibition ^†
IC50 (TACE/ADAM17; listed as compound 5): not inhibited
IC25 [3]: 237 nM
IC50 [3]: 724 nM
IC75 [3]: 2211 nM
IC50 (MMP-14/MT1-MMP): > 1000 nM
IC50 (MMP-14/MT1-MMP; OmniMMP substrate peptide): 14800 nM

CC(C)[C@H](C(=O)O)N(CCNC(=O)c1cccc(C(=O)NCCN([C@@H](C(=O)O)C(C)C)S(=O)(=O)c2ccc(-c3ccccc3)cc2)c1)S(=O)(=O)c1ccc(-c2ccccc2)cc1 [Compound 7]
IC25 [1]: 10 nM
IC50 [1]: 43 nM
IC75 [1]: 181 nM
IC50 (neutrophil elastase): no inhibition ^†
IC25 [2]: 0.008 nM
IC50 [2]: 0.066 nM
IC75 [2]: 0.6 nM
fold difference between monomeric and trimeric MMP-9 ([2]; MMP-9 purified from human neutrophils, gelatin substrate): 650 fold
IC50 (TACE/ADAM17): no inhibition ^†
IC50 (TACE/ADAM17; listed as compound 7): not inhibited
IC25 [3]: 0.0017 nM
IC50 [3]: ~0.1 nM and 0.1 nM
IC75 [3]: 6.0 nM
IC50 (MMP-14/MT1-MMP): > 1000 nM
IC50 (MMP-14/MT1-MMP; OmniMMP substrate peptide): 1080 nM
